Measured values from US20190248834A1, “ENDOMORPHIN-2, TETRAPEPTIDE DERIVATIVES THEREOF, AND USES THEREOF” (priority 2016, published 2019).
Non-standard residues stand in square brackets, D forms with d. pGlu = O=C1CC[C@@H](C(=O)O)N1

What was measured:
Format in all cases: in vivo, human
[1] = tested on: jaw pain after tooth extraction; assay: Example 29: analgesic effect on dental extraction pain, topical
Protocol: A subject had substantial pain in the right maxillary jaw that started about 2 hours after extraction of a right maxillary tooth. […] Only negligible discomfort, perceived by touching the extraction site with the tongue, was detectable thereafter.

[2] = tested on: psoriatic arthritis of fingers; assay: Example 19: analgesic effect on psoriatic arthritis of fingers, topical
Protocol: A subject had extensive plaque psoriasis and painful arthritis of the interphalangeal joints of both index fingers, left thumb and left 5th finger. The pain was compromising their work performance as an esthetician. […] Pain relief lasted for about 6 hours.

[3] = tested on: severe migraine headaches; assay: Example 41: analgesic effect on migraine headaches, topical
Excerpt: A subject with severe migraine headaches associated with nausea and vomiting that had been occurring 3-4 times per month over the past 9-10 years, topically applied a composition containing 1% (w/v) of N-Ac-Tyr-Pro-Phe-Phe-NH2 (SEQ ID NO: 23) in WEP442 to the forehead, brow, eyelids and temporal areas at the onset of headaches. […] The frequency of episodes diminished over the next two months, and the subject reported that they experienced no headaches for at least a 5 week period.

[4] = tested on: ordinary type of headache; assay: Example 11: analgesic effect on headache, topical; conditions: 1% (w/v) in EP73, topical
Excerpt: A subject, developed an ordinary type of headache in the early afternoon. Such headaches usually would persist for several hours, being relieved incompletely by treatment with oral drugs, such as ibuprofen and/or acetaminophen. In this instance, they topically applied an anhydrous composition containing 1% (w/v) N-Ac-Tyr-Pro-Phe-Phe-NH2(SEQ ID NO: 23) in EP73 to the frontal and temporal areas.

[5] = tested on: severe arthritis of the left hip; assay: Example 18: analgesic effect on arthritic hip, topical
Protocol: A subject had severe arthritis of the left hip with pain and inflammation for 6 months.
The subject topically applied a composition containing 0.7% (w/v) N-Ac-Tyr-Pro-Phe-Phe-NH2 (SEQ ID NO: 23) in WEP442 to the left hip and covered the hip with plastic wrap overnight. The pain reduced about 50% in 8 hours. The samen procedure was repeated the following day. […] The analgesic effect observed was 100% improvement as judged by clinical evaluation.

[6] = tested on: chronic knee pain; assay: Example 46: analgesic effect on chronic knee pain from post-trauma, topical; conditions: 1% (w/v) in WEP442, topical
Excerpt: Onset of pain occurred in adulthood […], worsening to a level that compromised their performance as a hospital nurse.

[7] = tested on: jammed middle finger, pain and swelling; assay: Example 15: analgesic effect on injured fingers, topical; conditions: 1% (w/v) in WEP442, topical
Excerpt: A subject, jammed their middle finger causing severe pain and swelling (inflammation). The subject topically applied a composition containing 1% (w/v) N-Ac-Tyr-Pro-Phe-Phe-NH2 ([…]) in WEP442 to the affected finger.

[8] = tested on: osteoarthritis of the fingers and wrists; assay: Example 82: pain and flexibility of fingers and wrists affected by osteoarthritis, topical
Excerpt: A subject had osteoarthritis of the fingers and wrists for about 10 years, with substantial worsening over the past several months. Symptoms included painful finger joints and wrists. The pain was much worsened by flexion, so that making a first was too painful to try. Moreover, complete flexion had not been possible because of actual physical limitations. Anatomical signs of their disorder, e.g., enlarged finger joints, were conspicuous in their case. […] Additionally, complete flexion of the fingers and making of a tight first could be done without any discomfort.

[9] = tested on: herpes zoster pain; assay: Example 6: analgesic effect on viral infection, topical
Excerpt: A subject had herpes zoster on a temporal branch of the tri-geminal nerve with severe clinical pain involving the areas of left temporal, left forehead, left scalp, left neck, and left ear canal. Touching the left anterior scalp hair provoked severe pain.
The subject topically administered an anhydrous composition containing 0.5% (w/v) N-Ac-Tyr-Pro-Phe-Phe-NH2 (SEQ ID NO: 23) in EP73, formulated as described in Example 2, by applying a few drops to wet the skin surface. […] The pain relief lasted for up to 1 hour. Multiple repeated topical applications of the anhydrous composition containing 0.5% (w/v) N-Ac-Tyr-Pro-Phe-Phe-NH2 (SEQ ID NO: 23) in EP73 gave the same analgesic result with 4+ relief of pain according to clinical evaluation, and also for longer periods of up to 6 hours.

[10] = tested on: headache; assay: Example 72: analgesic effect on migraine headache, topical; conditions: 0.5% (w/v) in WEP442, topical
Excerpt: A subject who suffered from migraine headaches, woke up one morning with a headache, the type of which was uncertain. They topically applied to their forehead, periocular and temporal areas a composition containing 0.5% (w/v) of N-Pg-Tyr-Pro-Phe-Phe-NH2 (SEQ ID NO: 44) in WEP442.

[11] = tested on: post-operative knee soreness; assay: Example 70: analgesic effect on post-operative tenderness and soreness of knee, topical; conditions: 0.6% (w/v) in WEP442, topical
Excerpt: A person underwent surgical repair of a bulging meniscus of the right knee, after which there was substantial tenderness and soreness, particularly so upon their walking, which they were advised to do a few hours daily during the recovery period. Skin glue had been used for wound closure, which allowed for topical applications of a composition containing 0.6% (w/v) of N-Pg-Tyr-Pro-Phe-Phe-NH2 (SEQ ID NO: 44) in WEP442 to the entire knee including 5 surgical wound sites. […] Repeated topical applications provided freedom of movement throughout the day with negligible discomfort.

[12] = tested on: severe headache; assay: Example 59: analgesic effect on headache of acupuncturist, topical; conditions: 0.6% (w/v) in WEP442, topical
Excerpt: A person acupuncturist, on a day while practicing their specialty, developed a severe headache that was not relieved by administering acupuncture procedures themself.

[13] = 0.5% (w/v) in EP73, multiple repeated topical applications

CC(=O)N[C@@H](Cc1ccc(O)cc1)C(=O)N1CCC[C@H]1C(=O)N[C@@H](Cc1ccccc1)C(=O)N[C@@H](Cc1ccccc1)C(N)=O [N-Ac-Tyr-Pro-Phe-Phe-NH2]
time to pain relief ([1]; 1% (w/v) in WEP442, topical): ≤ 1 min | pain relief ([1]; 1% (w/v) in WEP442, topical to facial maxillary area): complete relief of pain | duration of pain relief ([2]; 1% (w/v) in WEP442, topical): about 6 hours | time to pain relief ([2]; 1% (w/v) in WEP442, topical): ≤ 30 s | pain relief ([2]; 1% (w/v) in WEP442, topical each day for one month): all arthritic pain of the finger was gone | time to pain relief ([3]; 1% (w/v) in WEP442, topical): 2 to 3 min | pain relief ([3]; 1% (w/v) in WEP442, topical at onset of headaches): Complete relief of pain and other symptoms | period without headaches ([3]; 1% (w/v) in WEP442, topical, over the next two months): ≥ 5 week | duration of headache alleviation [4]: 18 h | pain relief [4]: headache pain disappeared completely | time to pain relief [4]: Within minutes | improvement by clinical evaluation ([5]; 0.7% (w/v) in WEP442, procedure repeated the following day, another 8 hours): 100% | pain reduction ([5]; 0.7% (w/v) in WEP442, under plastic wrap overnight, in 8 hours): about 50% | duration of absence of pain [6]: 8 h | pain relief [6]: complete absence of pain | relief of pain and swelling [7]: pain and much of the swelling disappeared | time to relief [7]: almost immediately | pain relief ([8]; 0.8% (w/v) in WEP442, after 1 week, one application every 12 hours): complete relief of pain was continually sustained | pain relief ([8]; 0.8% (w/v) in WEP442, one topical application, within 20 minutes): a degree of improvement of pain | pain relief ([8]; 0.8% (w/v) in WEP442, second application, within another 20 minutes): almost complete relief | duration of pain relief [9, 13]: up to 6 hours | relief of pain according to clinical evaluation [9, 13]: 4+ (4+ (90-100%): complete relief or eradication of pain for more than 4 hours) | pain relief ([9]; 0.5% (w/v) in EP73, topical): pain disappeared completely | time to pain relief ([9]; 0.5% (w/v) in EP73, topical): Within about a minute | duration of pain relief ([9]; 0.5% (w/v) in EP73, topical, first application): up to 1 hour

N-Pg-Tyr-Pro-Phe-Phe-NH2 ([pGlu]YPFF-NH2; SMILES NC(=O)[C@H](Cc1ccccc1)NC(=O)[C@H](Cc1ccccc1)NC(=O)[C@@H]1CCCN1C(=O)[C@H](Cc1ccc(O)cc1)NC(=O)[C@@H]1CCC(=O)N1)
headache relief [10]: promptly relieved and did not return | duration of pain relief [11]: 2 to 3 h | pain relief [11]: rapid, almost complete, relief of pain sensations | pain relief [12]: completely relieved their headache | time to pain relief [12]: ≤ 2 min
